Like-named read-outs stand apart in the source and are kept apart here.
Assay: Ocular tissue distribution and pharmacokinetics, 7.5 and 15 mg/kg oral, pigmented Dutch Belted rabbits (Example 7)
Assay type: in vivo
Conditions: Dutch Belted, rabbit; for concentration at 96 h / concentration at 168 h / concentration at 0 h / concentration at 1 h / concentration at 6 h / concentration at 24 h / concentration at 240 h / concentration at 12 h: oral, DB rabbits; for MRT last / Tmax: male DB rabbits
Procedure: For Group 1, two animals/time point were sacrificed via an overdose of sodium pentobarbital at approximately 1, 6, 12, 24, 96, 168, and 240 hours postdose. Blood (approximately 2 mL) was collected from all animals at sacrifice into tubes containing K2EDTA via exsanguination (cardiac puncture).
For Groups 2 through 4, blood (approximately 2 mL) was collected via a jugular vein using a syringe and needle and was transferred into tubes containing K2EDTA at approximately 12 hours after the a.m. dose on Day 15 from the two animals designated for sacrifice at approximately 240 hours after the a.m. dose on Day 15.
For Groups 2 through 4, two animals/group/time point were sacrificed via an overdose of sodium pentobarbital prior to dosing on Day 15 and at approximately 1, 6, 24, 96, 168, and 240 hours after the a.m. dose on Day 15. Blood (approximately 2 mL) was collected from all animals at sacrifice into tubes containing K2EDTA via exsanguination (cardiac puncture).
Blood was maintained on wet ice, in chilled cryoracks, or at approximately 5° C. prior to centrifugation to obtain plasma. Centrifugation began within 1 hour of collection (Deviation). Plasma was placed into 96-well tubes with barcode labels. Plasma was maintained on dry ice prior to storage at approximately −70° C.
At the time of sacrifice, both eyes were enucleated, and the following tissues were collected. Each eye was flash-frozen in liquid nitrogen for 15 to 20 seconds. The enucleated eye was placed on dry ice or stored at approximately −70° C. for at least 2 hours. Within approximately 3 days, the frozen matrices were collected as right and left eyes for each matrix into the specific tube type listed.
At the time of frozen collection, the ocular tissues were rinsed with saline and blotted dry (as appropriate), weighed, and placed on dry ice. All ocular tissues were collected as single samples.

[1] = choroid-RPE, […], Day 1, […] single dose, read-out: Mean Choroid-RPE Concentration
[2] = choroid-RPE, […], Day 15, […] BID, read-out: Mean Choroid-RPE Concentration
[3] = iris-ciliary body (ICB), ICB (OU), Group 1, Day 1, 7.5 mg/kg single oral dose
[4] = iris-ciliary body, 15 mg/kg, Day 15, 15 mg/kg BID, read-out: Mean Iris-Ciliary Concentration
[5] = iris-ciliary body, […], Day 1, […] single dose, read-out: Mean Iris-Ciliary Concentration
[6] = iris-ciliary body, […], Day 15, […] BID, read-out: Mean Iris-Ciliary Concentration
[7] = plasma, 15 mg/kg, Day 15, 15 mg/kg BID, read-out: Mean Plasma Concentration
[8] = plasma, […], Day 1, […] single dose, read-out: Mean Plasma Concentration
[9] = plasma, […], Day 15, […] BID, read-out: Mean Plasma Concentration
[10] = retina, 15 mg/kg BID, Day 15, 15 mg/kg BID, read-out: Mean Retina Concentration
[11] = retina, 15 mg/kg, Day 15, 15 mg/kg BID, read-out: Mean Retina Concentration
[12] = retina, […], Day 15, […] BID, read-out: Mean Retina Concentration

SMILES: CC(=O)c1nn(CC(=O)N2C[C@H](F)C[C@H]2C(=O)Nc2cccc(Br)n2)c2ccc(-c3cnc(C)nc3)cc12 [Compound 1, (2S,4R)-1-(2-(3-Acetyl-5-(2-methylpyrimidin-5-yl)-1H-indazol-1-yl)acetyl)-N-(6-bromopyridin-2-yl)-4-fluoropyrrolidine-2-carboxamide]
- concentration at 96 h [1]: 28.4 ng/g
- concentration at 168 h [1]: 19.4 ng/g
- concentration at 0 h [2]: 695 ng/g
- concentration at 1 h [2]: 2000 ng/g
- concentration at 6 h [2]: 1530 ng/g
- concentration at 24 h [2]: 685 ng/g
- concentration at 96 h [2]: 238 ng/g
- concentration at 168 h [2]: 183 ng/g
- concentration at 240 h (choroid-retinal pigment epithelium (choroid-RPE), 15 mg/kg, Day 15, 15 mg/kg BID, read-out: Mean Choroid-RPE Concentration): 119 ng/g
- concentration at 240 h (choroid-retinal pigment epithelium (choroid-RPE), […], Day 1, […] single dose, read-out: Mean Choroid-RPE Concentration): 5.23 ng/g
- concentration at 240 h (choroid-retinal pigment epithelium (choroid-RPE), […], Day 15, […] BID, read-out: Mean Choroid-RPE Concentration): 111 ng/g
- MRT last (choroid-retinal pigment epithelium (choroid-RPE), Choroid-RPE (OU), Group 1, Day 1, 7.5 mg/kg single oral dose): 42.8 h
- Tmax (choroid-retinal pigment epithelium (choroid-RPE), Choroid-RPE (OU), Group 2, Day 15, 7.5 mg/kg/dose BID oral (15 mg/kg/day)): 1 h
- Tmax (choroid-retinal pigment epithelium (choroid-RPE), Choroid-RPE (OU), Group 3, Day 15, 15 mg/kg/dose BID oral (30 mg/kg/day)): 1 h
- MRT last [3]: 5.59 h
- Tmax [3]: 1 h
- Tmax (iris-ciliary body (ICB), ICB (OU), Group 3, Day 15, 15 mg/kg/dose BID oral (30 mg/kg/day)): 1 h
- concentration at 1 h [4]: 2050 ng/g
- concentration at 6 h [4]: 939 ng/g
- concentration at 24 h [4]: 460 ng/g
- concentration at 1 h [5]: 435 ng/g
- concentration at 6 h [5]: 163 ng/g
- concentration at 24 h [5]: 31.4 ng/g
- concentration at 1 h [6]: 943 ng/g
- concentration at 6 h [6]: 634 ng/g
- concentration at 24 h [6]: 184 ng/g
- concentration at 0 h [7]: 36.4 ng/mL
- concentration at 1 h [7]: 910 ng/mL
- concentration at 6 h [7]: 130 ng/mL
- concentration at 12 h [7]: 54.3 ng/mL
- concentration at 24 h [7]: 10.5 ng/mL
- concentration at 1 h [8]: 423 ng/mL
- concentration at 6 h [8]: 25.1 ng/mL
- concentration at 12 h [8]: 14.8 ng/mL
- concentration at 24 h [8]: 3.26 ng/mL
- concentration at 0 h [9]: 22.2 ng/mL
- concentration at 1 h [9]: 440 ng/mL
- concentration at 6 h [9]: 90.1 ng/mL
- concentration at 12 h [9]: 29.6 ng/mL
- concentration at 24 h [9]: 6.64 ng/mL
- concentration at 6 h [10]: 115 ng/g
- concentration at 24 h [10]: 139 ng/g
- concentration at 96 h [10]: 31.4 ng/g
- concentration at 168 h [10]: 22.5 ng/g
- concentration at 240 h [10]: 19.7 ng/g
- concentration at 0 h [11]: 45 ng/g
- concentration at 1 h [11]: 1120 ng/g
- concentration at 1 h (retina, […], Day 1, […] single dose, read-out: Mean Retina Concentration): 188 ng/g
- concentration at 0 h [12]: 20.7 ng/g
- concentration at 1 h [12]: 306 ng/g

From patent US20230126447A1, “OCULAR DRUG DEPOT FOR COMPLEMENT-MEDIATED DISORDERS” (priority 2020, published 2023)
